Assay results reported in patent US20260231994A1, “TASTE-ENHANCING COMPOSITION, METHOD FOR PRODUCING SAME, FOOD PRODUCT, AND METHOD FOR ENHANCING TASTE OF FOOD PRODUCT” (HOUSE FOODS GROUP INC., priority 2023, published 2026).

What was measured:
Type in all cases: in vivo
[1] = Experiment 6 sensory evaluation of cyclic dipeptides, “top sharp saltiness”
Method in brief: (§1)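 Reduced-sodium curry roux (44 g in 300 g hot water) was spiked with cyclic dipeptide solutions matching heat-treated coriander or paprika levels, at 0.5% or 1.0% (w/w) final. Three evaluators scored each sample against unspiked reduced-sodium and common roux. Mean scores were graded F to AA.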

[2] = Experiment 6 sensory evaluation of cyclic dipeptides, “middle fullness (enhanced thickness)”
Method in brief: as §1

[3] = Experiment 6 sensory evaluation of cyclic dipeptides, “boosting of last flavor (aftertaste)”
Method in brief: as §1

[4] = Additive amount coriander 0.5% (heat-treated coriander equivalent aqueous solution, final 0.5% (w/w)), reduced-sodium curry roux
[5] = Additive amount coriander 0.5%, reduced-sodium curry roux
[6] = heat-treated coriander equivalent aqueous solution of cyclic dipeptide, final 1.0% (w/w) in reduced-sodium curry roux dispersion
[7] = heat-treated coriander equivalent aqueous solution of cyclic dipeptide, final 1.0% (w/w) in reduced-sodium curry roux dispersion, 3 evaluators
[8] = Additive amount paprika 0.5% (heat-treated paprika equivalent aqueous solution, final 0.5% (w/w)), reduced-sodium curry roux
[9] = Additive amount paprika 0.5%, reduced-sodium curry roux
[10] = heat-treated paprika equivalent aqueous solution of cyclic dipeptide, final 1.0% (w/w) in reduced-sodium curry roux dispersion
[11] = heat-treated paprika equivalent aqueous solution of cyclic dipeptide, final 1.0% (w/w) in reduced-sodium curry roux dispersion, 3 evaluators

Row | Substance | Top sharp saltiness Average [1, 4] [points] | Top sharp saltiness Evaluation [1, 5] | Top sharp saltiness Evaluation [1, 6] | Top sharp saltiness Average [1, 7] [points] | Middle fullness Average [2, 5] [points] | Middle fullness Evaluation [2, 5] | Middle fullness Evaluation [2, 6] | Middle fullness Average [2, 7] [points] | Bosting of last flavor Average [3, 5] [points] | Bosting of last flavor Evaluation [3, 5] | Bosting of last flavor Evaluation [3, 6] | Bosting of last flavor Average [3, 7] [points] | Top sharp saltiness Average [1, 8] [points] | Top sharp saltiness Evaluation [1, 9] | Top sharp saltiness Evaluation [1, 10] | Top sharp saltiness Average [1, 11] [points] | Middle fullness Average [2, 9] [points] | Middle fullness Evaluation [2, 9] | Middle fullness Evaluation [2, 10] | Middle fullness Average [2, 11] [points] | other results
1 | cyclic (Pro-Pro) [Coriander ID 18] | 2.2 | B (“B” when it was 2.0 or higher and 2.5 or lower) | B (“B” when it was 2.0 or higher and 2.5 or lower) | 2.3 | 2.5 | B (“B” when it was 2.0 or higher and 2.5 or lower) | A (“A” when it was 2.6 or higher and 2.9 or lower) | 2.7 | 2.3 | B (“B” when it was 2.0 or higher and 2.5 or lower) | B (“B” when it was 2.0 or higher and 2.5 or lower) | 2.5 |  |  |  |  |  |  |  |  | 
2 | cyclic (Glu-Tyr) [Coriander ID 19] |  |  |  |  |  |  |  |  |  |  |  |  | 2.3 | B (“B” when it was 2.0 or higher and 2.5 or lower) | A (“A” when it was 2.6 or higher and 2.9 or lower) | 2.8 | 2.7 | A (“A” when it was 2.6 or higher and 2.9 or lower) | AA (“AA” when it was 3.0 or higher) | 3.0 | Bosting of last flavor Average [3, 9]: 2.5 points; Bosting of last flavor Evaluation [3, 9]: B (“B” when it was 2.0 or higher and 2.5 or lower); Bosting of last flavor Evaluation [3, 10]: A (“A” when it was 2.6 or higher and 2.9 or lower); Bosting of last flavor Average [3, 11]: 2.8 points
3 | cyclic (Leu/Ile-His) [Coriander ID 52] | 3.3 | AA (“AA” when it was 3.0 or higher) | B (“B” when it was 2.0 or higher and 2.5 or lower) | 2.3 | 3.2 | AA (“AA” when it was 3.0 or higher) | A (“A” when it was 2.6 or higher and 2.9 or lower) | 2.7 | 2.8 | A (“A” when it was 2.6 or higher and 2.9 or lower) | AA (“AA” when it was 3.0 or higher) | 3.0 |  |  |  |  |  |  |  |  | 
4 | cyclic (Gly-Arg) [Coriander ID 7] | 2.5 | B (“B” when it was 2.0 or higher and 2.5 or lower) | C (“C” when it was 1.1 or higher and 1.9 or lower) | 1.3 | 3.2 | AA (“AA” when it was 3.0 or higher) | C (“C” when it was 1.1 or higher and 1.9 or lower) | 1.7 | 3.0 | AA (“AA” when it was 3.0 or higher) | C (“C” when it was 1.1 or higher and 1.9 or lower) | 1.5 |  |  |  |  |  |  |  |  | 
5 | cyclic (Gly-Ala) [Coriander ID 57] | 2.0 | B (“B” when it was 2.0 or higher and 2.5 or lower) | B (“B” when it was 2.0 or higher and 2.5 or lower) | 2.2 | 2.0 | B (“B” when it was 2.0 or higher and 2.5 or lower) | B (“B” when it was 2.0 or higher and 2.5 or lower) | 2.5 | 2.3 | B (“B” when it was 2.0 or higher and 2.5 or lower) | A (“A” when it was 2.6 or higher and 2.9 or lower) | 2.7 |  |  |  |  |  |  |  |  | 
6 | cyclic (Leu/Ile-Ser) [Coriander ID 24] |  |  |  |  |  |  |  |  |  |  |  |  | 2.9 | A (“A” when it was 2.6 or higher and 2.9 or lower) | C (“C” when it was 1.1 or higher and 1.9 or lower) | 1.7 | 3.1 | AA (“AA” when it was 3.0 or higher) | C (“C” when it was 1.1 or higher and 1.9 or lower) | 1.8 | Bosting of last flavor Average [3, 9]: 2.9 points; Bosting of last flavor Evaluation [3, 9]: A (“A” when it was 2.6 or higher and 2.9 or lower); Bosting of last flavor Evaluation [3, 10]: B (“B” when it was 2.0 or higher and 2.5 or lower); Bosting of last flavor Average [3, 11]: 2.2 points
7 | cyclic (Pro-Asp) [Coriander ID 16] |  |  |  |  |  |  |  |  |  |  |  |  | 1.8 | C (“C” when it was 1.1 or higher and 1.9 or lower) | C (“C” when it was 1.1 or higher and 1.9 or lower) | 1.8 | 2.0 | B (“B” when it was 2.0 or higher and 2.5 or lower) | B (“B” when it was 2.0 or higher and 2.5 or lower) | 2.0 | Bosting of last flavor Average [3, 9]: 2.2 points; Bosting of last flavor Evaluation [3, 9]: B (“B” when it was 2.0 or higher and 2.5 or lower); Bosting of last flavor Evaluation [3, 10]: C (“C” when it was 1.1 or higher and 1.9 or lower); Bosting of last flavor Average [3, 11]: 1.8 points
8 | cyclic (Glu-Arg) [Coriander ID 8] |  |  |  |  |  |  |  |  |  |  |  |  | 1.8 | C (“C” when it was 1.1 or higher and 1.9 or lower) | B (“B” when it was 2.0 or higher and 2.5 or lower) | 2.2 | 2.2 | B (“B” when it was 2.0 or higher and 2.5 or lower) | B (“B” when it was 2.0 or higher and 2.5 or lower) | 2.5 | Bosting of last flavor Average [3, 9]: 2.7 points; Bosting of last flavor Evaluation [3, 9]: A (“A” when it was 2.6 or higher and 2.9 or lower); Bosting of last flavor Evaluation [3, 10]: B (“B” when it was 2.0 or higher and 2.5 or lower); Bosting of last flavor Average [3, 11]: 2.3 points
9 | cyclic (Glu-Gly) [Coriander ID 9] | 2.2 | B (“B” when it was 2.0 or higher and 2.5 or lower) | B (“B” when it was 2.0 or higher and 2.5 or lower) | 2.0 | 2.8 | A (“A” when it was 2.6 or higher and 2.9 or lower) | AA (“AA” when it was 3.0 or higher) | 3.0 | 2.8 | A (“A” when it was 2.6 or higher and 2.9 or lower) | B (“B” when it was 2.0 or higher and 2.5 or lower) | 2.5 |  |  |  |  |  |  |  |  | 
